Tests used:
[1] = tested on: X-ALD fibroblast cell lines; assay: Cell health (proliferation, morphology) of X-ALD fibroblasts incubated with compounds; format: cell-based, Human; settings: for cell health judged by proliferation and morphology: after 72 hours; for cell survival (toxicity): 100 μM, both X-ALD cell lines, within 24 hours
Experimental: (§1) Human skin fibroblasts were obtained from X-ALD patients through the Neurology Outpatient Clinic of the Academic Medical Center. Written informed consent was received from each patient. X-ALD diagnosis was confirmed by VLCFA and ABCD1 mutation analysis. Control fibroblasts were obtained from male anonymous volunteers with written informed consent. Fibroblasts were cultured in Dulbecco's modified Eagle's medium (DMEM) with L-glutamine and 4.5 g/L glucose, supplemented with 10% fetal calf serum, 2.5 mM HEPES, 100 U/ml penicillin and 100 U/ml streptomycin. Cells were cultured at 37° C. in a humidified 5% CO2 atmosphere. All fibroblast cell lines used were tested routinely for mycoplasma. All tests were negative.
10 mM stock solutions in DMSO were prepared by weighing the amount of compound (1 and 3 and their respective active metabolites, 2 and 4) as indicated in Table 2. Stock solutions were stored at room temperature in the dark. For each incubation, the amount of tissue culture medium needed was calculated and a stock solution of tissue culture medium with the final concentration of the to-be-tested compound was prepared. Tissue culture medium was removed from the cells, cells were washed once with PBS and the tissue culture medium with the compounds was added. If an experiment lasted longer than three days, the tissue culture medium and compounds were refreshed (using a fresh preparation) after three days until the end of the experiment.
Two different X-ALD fibroblast cell lines were incubated in duplicate with four compounds at three dosages as highlighted in Table 3.
4 X-ALD cell lines were incubated with 10 μM of 4 compounds 1, 2, 3, and 4. The effect of treatment on ABCD2 expression was analyzed at day 3 and day 10. For the 10 day incubation, tissue culture medium and compounds were refreshed at day 3 and day 6.

X-ALD cell lines [2] = assay: D3-C26:0 de novo synthesis from D3-C22:0 in intact cells; format: cell-based, Human; settings: 10 day treatment, 5 X-ALD cell lines
Experimental: as §1
The effect of treatment on D3-C26:0 synthesis in intact cells. The effect of certain compounds of the invention on the synthesis of D3-C26:0 from D3-C22:0 was measured in cultured skin fibroblasts from controls and X-ALD patients. Cells were seeded at approximately 40% confluency in T75 flasks in DMEM. The next day, medium was replaced with medium containing 30 μM D3-C22:0 and the assayed compounds at their final concentration. […] Each 72 h, the tissue culture medium and compounds was refreshed. At the end of the experiment cells were harvested and VLCFA analyzed as described (Valianpour et al., Molecular Genetics and Metabolism, 79: 189-196 (2003)).
VLCFA were analyzed by electrospray ionization mass spectrometry (ESI-MS) as described (Valianpour et al., Molecular Genetics and Metabolism, 79: 189-196 (2003)).
5 different X-ALD cell lines were incubated for 6 days with compounds 1, 2, 3, and 4 at 10 μM, 5 mM 4PBA (sodium 4-phenylbutyrate), or 0.1 μM sobetirome. On Day 6, 30 μM D3C22:0 was added to assess the effect of treatment on beta-oxidation and de novo D3C26:0 synthesis. 6 untreated control cells as well as 5 different untreated X-ALD cells were included to allow assessment of the treatment effect. The total set consisted of 41 experiments

X-ALD cell lines [3] = assay: D3-C22:0 (VLCFA) beta-oxidation in intact cells; format: cell-based, Human; settings: 10 day treatment, 5 X-ALD cell lines
Experimental: as §1
Peroxisomal beta-oxidation activity was measured essentially as described by incubating cells with 30 μM deuterium-labeled C22:0 (D3-C22:0) (Kemp et al., Clinical Chemistry 50: 1824-1826 (2004)). Cells were seeded at approximately 40% confluency in T75 flasks in DMEM. […] At the end of the experiment cells were harvested and VLCFA analyzed as described (Valianpour et al., Molecular Genetics and Metabolism, 79: 189-196 (2003)).
VLCFA were analyzed by electrospray ionization mass spectrometry (ESI-MS) as described (Valianpour et al., Molecular Genetics and Metabolism, 79: 189-196 (2003)). […]

ABCD1−/− mice [4] = assay: Whole blood VLCFA-LPC levels in in vivo model of X-ALD; settings: for Mean blood C26:0-LPC level: once daily IP
Experimental: (§2) Male ABCD1−/− mice were developed using the Taconic 129SvEv background strain. Animals were housed 3-4/cage under a 12-hour lighting cycle (7 AM-7 PM light) and controlled temperature (22° C.) in the rodent facility. They were fed standard mouse chow and had access to drinking water ad libitum. Mice were between 2 and 3 months of age at the beginning of each study.
(§3) Mice were injected once daily intraperitoneal with either drug or vehicle. For blood collection, ˜50 μL of blood was obtained by facial vein puncture using a sterile lancet. Blood was collected in a 1.5 ml microcentrifuge tube containing dried dipotassium EDTA and mixed by gentle inversion at least ten times before storing at −20° C. Blood was obtained in this manner following two, four, and six weeks of treatment. Following blood collection at six weeks, animals were sacrificed by cervical dislocation. Additional blood for preparation of plasma was obtained via cardiac puncture, and blood placed in Microtainer tubes. Brain, spinal cord, adrenal glands, testis, and liver were excised and snap frozen in liquid nitrogen for future analyses.

ABCD1−/− mice [5] = assay: Plasma VLCFA-LPC levels in in vivo model of X-ALD
Experimental: as §2, §3
During the second cohort study, blood was obtained as described in the Methods section. At the six week time point sufficient blood was collected to permit plasma VLCFA analyses at weeks two, four and six. Plasma is considered by many to be a more reliable measurement of VLCFA levels, because of reduced analytical interference from other analytes, as well as reduced variability of the measurements.

[6] = second cohort, week 6, p<0.0001

Q: How did the “cell health judged by proliferation and morphology” value ([1]; 0.1, 1 or 10 μM) turn out when `Cc1cc(OCP(=O)(O)O)cc(C)c1Cc1ccc(O)c(Cc2ccccc2)c1` [Compound 4] was run?
A: looked healthy

Q: For `Cc1cc(OC[P@@]2(=O)OCC[C@@H](c3cccc(Cl)c3)O2)cc(C)c1Cc1ccc(O)c(C(C)C)c1` [Compound 1], which “reduction in D3C26:0 de novo synthesis” value (X-ALD cell lines [2]; 10 μM) is on record?
A: ~40%

Q: And the “cell survival (toxicity)” value [1]?
A: dead

Q: And the “cell health judged by proliferation and morphology” value ([1]; 0.1 or 10 μM)?
A: looked healthy

Q: With `Cc1cc(OCC(=O)O)cc(C)c1Cc1ccc(O)c(C(C)C)c1` [sobetirome] as the molecule, how does the “effect on VLCFA de novo synthesis” value (X-ALD cell lines [2]; 0.1 μM) read?
A: did not show any beneficial effect

Q: And the “effect on VLCFA beta-oxidation” value (X-ALD cell lines [3]; 0.1 μM)?
A: did not show any beneficial effect

Q: How did the “cell health judged by proliferation and morphology” value ([1]; 0.1, 1 or 10 μM) turn out when `Cc1cc(OCP(=O)(O)O)cc(C)c1Cc1ccc(O)c(C(C)C)c1` [Compound 2] was run?
A: looked healthy

Q: `O=C([O-])CCCc1ccccc1.[Na+]` [Compound 4PBA, sodium 4-phenylbutyrate] was tested. Which “VLCFA (D3C26:0) de novo synthesis” value (X-ALD cell lines [2]; 5 mM) did it give?
A: near normal levels

Q: What about the VLCFA beta-oxidation restored (X-ALD cell lines [3]; 5 mM) of the same molecule?
A: ~50 % of controls

Q: `Cc1cc(OCP(=O)(OCOC(=O)C(C)(C)C)OCOC(=O)C(C)(C)C)cc(C)c1Cc1ccc(O)c(Cc2ccccc2)c1` [Compound 3] was tested. Which “cell survival (toxicity)” value [1] did it give?
A: dead

Q: And the “cell health judged by proliferation and morphology” value ([1]; 0.1 or 10 μM)?
A: looked healthy

Q: What about the “reduction in whole blood C26:0-LPC levels relative to vehicle controls” value (ABCD1−/− mice [4]; initial cohort, after six week treatment, p<0.0001) of the same molecule?
A: 40%

Q: What about the “Mean blood C26:0-LPC level” value (ABCD1−/− mice [4]; initial cohort, week 2) of the same molecule?
A: 0.262 µM

Q: What about the “Mean blood C26:0-LPC level” value (ABCD1−/− mice [4]; initial cohort, week 4) of the same molecule?
A: 0.276 µM

Q: And the “Mean blood C26:0-LPC level” value (ABCD1−/− mice [4]; initial cohort, week 6)?
A: 0.356 µM

Q: And the “Difference in Mean Change from Baseline, blood C26:0-LPC” value (“Difference in Mean Change from Baseline” for short) (ABCD1−/− mice [4]; initial cohort, week 2)?
A: -0.052 µM

Q: What about the “% Difference versus Vehicle, blood C26:0-LPC” value (from here on “% Difference versus Vehicle”) (ABCD1−/− mice [4]; initial cohort, week 2, p NS) of the same molecule?
A: 0%

Q: What about the “Difference in Mean Change from Baseline” value (ABCD1−/− mice [4]; initial cohort, week 4) of the same molecule?
A: -0.081 µM

Q: And the “% Difference versus Vehicle” value (ABCD1−/− mice [4]; initial cohort, week 4, p NS)?
A: −11%

Q: And the “Difference in Mean Change from Baseline” value (ABCD1−/− mice [4]; initial cohort, week 6)?
A: -0.188 µM

Q: What about the “% Difference versus Vehicle” value (ABCD1−/− mice [4]; initial cohort, week 6, p<0.0001) of the same molecule?
A: −40%

Q: What about the “reduction in whole blood C26:0-LPC levels (change from baseline)” value (ABCD1−/− mice [4]; second cohort, daily IP, six weeks of treatment, FIG. 8) of the same molecule?
A: approximately 0.11 μM

Q: And the “Least Squares Mean Change from Baseline Whole Blood C26:0-LPC” value (from here on “Least Squares Mean Change”) (ABCD1−/− mice [4]; second cohort, week 2, p NS versus vehicle)?
A: -0.021 µM

Q: And the “Least Squares Mean Change” value (ABCD1−/− mice [4]; second cohort, week 4, p<0.01 versus vehicle)?
A: -0.096 µM

Q: What about the “Least Squares Mean Change” value (ABCD1−/− mice [4]; second cohort, week 6, p<0.005 versus vehicle) of the same molecule?
A: -0.12 µM

Q: What about the “reduction in C26:0-LPC relative to vehicle-treated animals” value (ABCD1−/− mice [4]; second cohort, whole blood, six weeks, p<0.005) of the same molecule?
A: 52%

Q: What about the “C20:0-, C22:0-, and C24:0-LPC levels” value (ABCD1−/− mice [5]; after six weeks of treatment) of the same molecule?
A: significant reductions

Q: And the “Mean plasma C20:0-LPC level” value (ABCD1−/− mice [5]; second cohort, week 6)?
A: 0.76 µM

Q: And the “Mean plasma C22:0-LPC level” value (ABCD1−/− mice [5]; second cohort, week 6)?
A: 0.20 µM

Q: What about the “Mean plasma C24:0-LPC level” value (ABCD1−/− mice [5]; second cohort, week 6) of the same molecule?
A: 1.14 µM

Q: And the “Mean plasma C26:0-LPC level” value (ABCD1−/− mice [5]; second cohort, week 6)?
A: 0.20 µM

Q: And the “% Difference vs. Vehicle, plasma C20:0-LPC” value (ABCD1−/− mice [5]; [6])?
A: −54%

Q: What about the “% Difference vs. Vehicle, plasma C22:0-LPC” value (ABCD1−/− mice [5]; [6]) of the same molecule?
A: −43%

Q: And the “% Difference vs. Vehicle, plasma C26:0-LPC” value (ABCD1−/− mice [5]; [6])?
A: −29%

Q: And the “% Difference vs. Vehicle, plasma C24:0-LPC” value (ABCD1−/− mice [5]; second cohort, week 6, p<0.005)?
A: −21%

Reference: patent US20190134069A1, “USE OF THYROID BETA-AGONISTS” (priority 2016, published 2019)
